The source made the active and inactive calls. The rule behind the calls is not given here.
Legend:
[1] = Cytotoxicity against Sprague-Dawley rat cortical neurons assessed as cell viability after 48 hrs by CellTiter-Glo luminescent assay; settings: cortical neurone
Cortical neurone [2] = assay: Antialzheimer activity in amyloid beta (25 to 35)-treated Sprague-Dawley rat cortical neurons assessed as dendrite extension activity at 1 uM after 4 days by fluorescence microscopic analysis; format: functional
Cortical neurone [3] = assay: Antialzheimer activity in amyloid beta (25 to 35)-treated Sprague-Dawley rat cortical neurons assessed as dendrite extension activity at 10 uM after 4 days by fluorescence microscopic analysis; format: functional
[4] = Cytotoxicity against Sprague-Dawley rat cortical neurons assessed as cell viability at 1 to 10 uM after 48 hrs by CellTiter-Glo luminescent assay; settings: cortical neurone

| SMILES | Activity [1] | Activity (Cortical neurone [2]) | Activity (Cortical neurone [3]) | Activity [4] |
| --- | --- | --- | --- | --- |
| N#C[C@]12CC=CC3=CO[C@H](Cc4ccc(O)cc41)[C@@H]32 | Dose-dependent effect | – | – | – |
| N#C[C@]12CCC3(OCCO3)C3=CO[C@H](Cc4cc(O)c(O)cc41)[C@@H]32 | – | inactive | – | – |
| N#C[C@]12CCC3(OCCO3)C3=CO[C@H](Cc4cc(I)c(O)cc41)[C@@H]32 | Dose-dependent effect | – | – | – |
| Oc1ccc2c(c1)[C@@H]1CCC3(OCCO3)C3=CO[C@H](C2)[C@@H]31 | – | inactive | – | – |
| C#Cc1cc2c(cc1O)[C@]1(C#N)CC=CC3=CO[C@H](C2)[C@@H]31 | Dose-dependent effect | inactive | Active | – |
| N#C[C@]12CC=CC3=CO[C@H](Cc4cc(-c5ccccc5)c(O)cc41)[C@@H]32 | Dose-dependent effect | – | – | – |
| N#C[C@]12CCC3(OCCO3)C3=CO[C@H](Cc4cc(C#CCCO)c(O)cc41)[C@@H]32 | Dose-dependent effect | – | – | – |
| N#C[C@]12CC[C@H](O)[C@@H]3CO[C@H](Cc4ccc(O)cc41)[C@@H]32 | Dose-dependent effect | – | – | – |
| N#C[C@]12CCC3(OCCO3)C3=CO[C@H](Cc4cc(-c5ccccc5)c(O)cc41)[C@@H]32 | Dose-dependent effect | – | – | – |
| N#C[C@]12CCC3(OCCO3)C3=CO[C@H](Cc4ccc(O)cc41)[C@@H]32 | – | – | – | Non-toxic |
| N#C[C@]12CC=CC3=CO[C@H](Cc4cc(C#CCCO)c(O)cc41)[C@@H]32 | Dose-dependent effect | Active | inactive | – |
| CCCCCCCCC/C=C/c1cc2c(cc1O)[C@]1(C#N)CCC3(OCCO3)C3=CO[C@H](C2)[C@@H]31 | Dose-dependent effect | Active | inactive | – |
| CCOc1cc2c(cc1O)[C@]1(C#N)CCC3(OCCO3)C3=CO[C@H](C2)[C@@H]31 | – | Active | – | – |
| N#C[C@]12CCC3(OCCO3)C3=CO[C@H](Cc4cc(Sc5ccccc5)c(O)cc41)[C@@H]32 | – | Active | – | – |
| N#C[C@]12CCC3(OCCO3)[C@@H]3CO[C@H](Cc4ccc(O)cc41)[C@@H]32 | – | Active | – | – |
| N#C[C@]12CC[C@H](O)C3=CO[C@H](Cc4ccc(O)cc41)[C@@H]32 | Dose-dependent effect | – | – | – |
| N#C[C@]12CCC[C@@H]3CO[C@H](Cc4ccc(O)cc41)[C@@H]32 | Dose-dependent effect | inactive | Active | – |
| C#Cc1cc2c(cc1O)[C@]1(C#N)CCC3(OCCO3)C3=CO[C@H](C2)[C@@H]31 | Dose-dependent effect | inactive | Active | – |

— ChEMBL document CHEMBL2413019, “Structure-activity-relationship studies on dihydrofuran-fused perhydrophenanthrenes as an anti-Alzheimer's disease agent” (Bioorg Med Chem, 2013)
